In PMC10934653, “Identification of Hypoglycemic Glycolipids from Ipomoea murucoides by Affinity-Directed Fractionation, In Vitro, In Silico and Dynamic Light Scattering Analysis” (Plants, 2024):
In brackets after ≈: the same amount, converted by molar mass.

Molecular target: T1, hepatic glucose-6-phosphatase (G6Pase)
T1 construct: gene G6pc1; native, microsomal fraction from livers of starved Wistar rats; not purified; with Glucose-6-phosphate exchanger SLC37A4
Experiment: colorimetric phosphate release assay, rat liver microsomes
Type: biochemical
Details: 80 mM glucose-6-phosphate, 40 mM imidazole, 250 mM sucrose, pH 7, 20 °C, 20 min; positive control

## O=C(/C=C/c1ccc(O)c(O)c1)O[C@@H]1C[C@](O)(C(=O)O)C[C@@H](O)[C@H]1O [chlorogenic acid]
  IC50: 122.5 µg/mL (≈ 346 µM)
